Results reported in BigSolDB 2.1.

Oc1cc(Cl)ccc1Oc1ccc(Cl)cc1Cl
solubility (mole fraction)
Details | in chloroform | in ethanol | in isopropyl myristate | in n-heptane | in n-octanol
293.15 K | 0.33 | 0.332 | 0.0422 | 0.0156 | 0.0089
298.15 K | 0.412 | 0.449 | 0.0475 | 0.0286 | 0.025
303.15 K | 0.501 | 0.57 | 0.0527 | 0.0421 | 0.0785
308.15 K | 0.561 | 0.654 | 0.0563 | 0.0605 | 0.157
313.15 K | 0.633 | 0.751 | 0.0594 | 0.0806 | 0.285
